These results are taken from ChEMBL document CHEMBL6083262, “Stereorandomized Oncocins with Preserved Ribosome Binding and Antibacterial Activity” (J Med Chem, 2024).

The source made the active and inactive calls. The calls are words filed in the database; no cut-off is given here. Non-standard residues stand in square brackets, D forms with d. Residues, ends and D or L forms follow the SMILES beside them. ξ: configuration not given here. ξY = NC(Cc1ccc(O)cc1)C(=O)O; ξR = N=C(N)NCCCC(N)C(=O)O; ξN = NC(=O)CC(N)C(=O)O; Nleu = CC(C)CNCC(=O)O; ξI = CCC(C)C(N)C(=O)O; Nlys = NCCCCNCC(=O)O; ξP = O=C(O)C1CCCN1

For one data set, the system named is Acinetobacter baumannii. As to the kind of experiment: Antimicrobial activity against Acinetobacter baumannii ATCC 19606 incubated for 16 to 20 hrs in full muller hinton medium by broth microdilution method. Type of data set: functional. The following applies: time 16-20 hrs.
Data set [1] in a line: Hemolytic activity in human RBC incubated for 4 hrs. Type of data set: toxicity, cell-based. The conditions noted are these: erythrocyte.
The next data set concerns Klebsiella pneumoniae. As to the kind of experiment: Antimicrobial activity against Klebsiella pneumoniae NCTC 418 incubated for 16 to 20 hrs in full muller hinton medium by broth microdilution method. Type of data set: functional. The following applies: time 16-20 hrs.
For another data set, the system named is Pseudomonas aeruginosa. As to the kind of experiment: Antimicrobial activity against Pseudomonas aeruginosa PAO1 incubated for 16 to 20 hrs in full muller hinton medium by broth microdilution method. The following applies: time 16-20 hrs. Type of data set: functional. Background: Dilution methods test growth across graded concentrations, often in twofold steps.

For data set [2], the system named is Staphylococcus aureus. The experiment in a line: Antimicrobial activity against methicillin-resistant Staphylococcus aureus COL incubated for 16 to 20 hrs in full muller hinton medium by broth microdilution method. Type of data set: functional. The following applies: time 16-20 hrs.
The subject of a further data set is rRNA. As to the kind of experiment: Binding affinity to [gamma32 P-ATP] labeled Escherichia coli MG1655 23S ribosomal RNA (5-CCCTTGGGACCTACTTC-3') at U2506 position assessed as increase in band intensity at 1 uM incubated for 2.5 hrs in full muller hinton medium by CMCT based gel electrophoresis. Type of data set: nucleic-acid assay.
Data set [3] has as its system Staphylococcus aureus. The experiment in a line: Antimicrobial activity against methicillin-resistant Staphylococcus aureus COL incubated for 16 to 20 hrs in 12.5 % muller hinton medium by broth microdilution method. The following applies: time 16-20 hrs. Type of data set: functional.

`CC[C@H](C)[C@H](NC(=O)[C@H](CCCNC(=N)N)NC(=O)[C@H](CCCNC(=N)N)NC(=O)[C@@H]1CCCN1C(=O)[C@@H]1CCCN1C(=O)[C@H](CCCNC(=N)N)NC(=O)[C@@H]1CCCN1C(=O)[C@H](CCCNC(=N)N)NC(=O)[C@H]1CCCN1C(=O)[C@H](CC(C)C)NC(=O)[C@H](Cc1ccc(O)cc1)NC(=O)[C@@H]1CCCN1C(=O)[C@@H]1CCCN1C(=O)[C@H](CCCCN)NC(=O)[C@H](CC(=O)O)NC(=O)[C@@H](N)C(C)C)C(=O)N[C@@H](Cc1ccc(O)cc1)C(=O)N[C@@H](CC(N)=O)C(=O)N[C@@H](CCCNC(=N)N)C(N)=O` (H-VDKPPYL[dP]RPRPPRRIYNR-NH2): the MIC against Acinetobacter baumannii, with Klebsiella pneumoniae, in the data set on Pseudomonas aeruginosa and against Staphylococcus aureus [2] was more than 64 µg/mL throughout. In data set [1], this molecule showed an MHC of more than 1000 µg/mL.
Turning to `CC[C@@H](C)[C@@H](NC(=O)[C@@H](CCCNC(=N)N)NC(=O)[C@@H](CCCNC(=N)N)NC(=O)[C@H]1CCCN1C(=O)[C@H]1CCCN1C(=O)[C@H](CCCNC(=N)N)NC(=O)[C@@H]1CCCN1C(=O)[C@H](CCCNC(=N)N)NC(=O)[C@@H]1CCCN1C(=O)[C@H](CC(C)C)NC(=O)[C@H](Cc1ccc(O)cc1)NC(=O)[C@@H]1CCCN1C(=O)[C@@H]1CCCN1C(=O)[C@H](CCCCN)NC(=O)[C@H](CC(=O)O)NC(=O)[C@@H](N)C(C)C)C(=O)N[C@H](Cc1ccc(O)cc1)C(=O)N[C@H](CC(N)=O)C(=O)N[C@H](CCCNC(=N)N)C(N)=O` (H-VDKPPYLPRPR[dP][dP][dR][dR][dI][dY][dN][dR]-NH2), the result in the data set with rRNA was Active. In addition, in data set [1], the MHC is more than 1000 µg/mL. The MIC in the data set on Pseudomonas aeruginosa and in the data set on Staphylococcus aureus [2] was more than 64 µg/mL throughout.
For `CCC(C)C(NC(=O)C(CCCNC(=N)N)NC(=O)C(CCCNC(=N)N)NC(=O)C1CCCN1C(=O)C1CCCN1C(=O)C(CCCNC(=N)N)NC(=O)C1CCCN1C(=O)C(CCCNC(=N)N)NC(=O)C1CCCN1C(=O)[C@H](CC(C)C)NC(=O)[C@H](Cc1ccc(O)cc1)NC(=O)[C@@H]1CCCN1C(=O)[C@@H]1CCCN1C(=O)[C@H](CCCCN)NC(=O)[C@H](CC(=O)O)NC(=O)[C@@H](N)C(C)C)C(=O)NC(Cc1ccc(O)cc1)C(=O)NC(CC(N)=O)C(=O)NC(CCCNC(=N)N)C(N)=O` (some centres not stated) (H-VDKPPYL[ξP][ξR][ξP][ξR][ξP][ξP][ξR][ξR][ξI][ξY][ξN][ξR]-NH2), the MHC in data set [1] is more than 1000 µg/mL. In addition, the MIC with Pseudomonas aeruginosa and in the data set on Staphylococcus aureus [2] was more than 64 µg/mL each time.
In data set [1], `CCC(C)C(NC(=O)C(CCCNC(=N)N)NC(=O)C(CCCNC(=N)N)NC(=O)C1CCCN1C(=O)C1CCCN1C(=O)C(CCCNC(=N)N)NC(=O)C1CCCN1C(=O)C(CCCNC(=N)N)NC(=O)[C@@H]1CCCN1C(=O)[C@H](CC(C)C)NC(=O)[C@H](Cc1ccc(O)cc1)NC(=O)[C@@H]1CCCN1C(=O)[C@@H]1CCCN1C(=O)[C@H](CCCCN)NC(=O)[C@H](CC(=O)O)NC(=O)[C@@H](N)C(C)C)C(=O)NC(Cc1ccc(O)cc1)C(=O)NC(CC(N)=O)C(=O)NC(CCCNC(=N)N)C(N)=O` (some centres not stated) (H-VDKPPYLP[ξR][ξP][ξR][ξP][ξP][ξR][ξR][ξI][ξY][ξN][ξR]-NH2) had an MHC of more than 1000 µg/mL. For the same molecule, the MIC in the data set on Pseudomonas aeruginosa and in the data set on Staphylococcus aureus [2] was more than 64 µg/mL in each case.
`CCC(C)C(NC(=O)C(CCCNC(=N)N)NC(=O)C(CCCNC(=N)N)NC(=O)C1CCCN1C(=O)C1CCCN1C(=O)C(CCCNC(=N)N)NC(=O)C1CCCN1C(=O)[C@H](CCCNC(=N)N)NC(=O)[C@@H]1CCCN1C(=O)[C@H](CC(C)C)NC(=O)[C@H](Cc1ccc(O)cc1)NC(=O)[C@@H]1CCCN1C(=O)[C@@H]1CCCN1C(=O)[C@H](CCCCN)NC(=O)[C@H](CC(=O)O)NC(=O)[C@@H](N)C(C)C)C(=O)NC(Cc1ccc(O)cc1)C(=O)NC(CC(N)=O)C(=O)NC(CCCNC(=N)N)C(N)=O` (some centres not stated) (H-VDKPPYLPR[ξP][ξR][ξP][ξP][ξR][ξR][ξI][ξY][ξN][ξR]-NH2) came in with an MHC in data set [1] of more than 1000 µg/mL. The MIC in the data set on Staphylococcus aureus [2] is more than 64 µg/mL.
`CC[C@H](C)[C@H](NC(=O)[C@H](CCCNC(=N)N)NC(=O)[C@H](CCCNC(=N)N)NC(=O)[C@@H]1CCCN1C(=O)[C@H]1CCCN1C(=O)[C@H](CCCNC(=N)N)NC(=O)[C@@H]1CCCN1C(=O)[C@H](CCCNC(=N)N)NC(=O)[C@@H]1CCCN1C(=O)[C@H](CC(C)C)NC(=O)[C@H](Cc1ccc(O)cc1)NC(=O)[C@@H]1CCCN1C(=O)[C@@H]1CCCN1C(=O)[C@H](CCCCN)NC(=O)[C@H](CC(=O)O)NC(=O)[C@@H](N)C(C)C)C(=O)N[C@@H](Cc1ccc(O)cc1)C(=O)N[C@@H](CC(N)=O)C(=O)N[C@@H](CCCNC(=N)N)C(N)=O` (H-VDKPPYLPRPR[dP]PRRIYNR-NH2) registered an MHC in data set [1] of more than 1000 µg/mL. For the same molecule, the MIC in the data set on Pseudomonas aeruginosa and against Staphylococcus aureus [2] was more than 64 µg/mL each time.
With `CC[C@H](C)[C@H](NC(=O)[C@H](CCCNC(=N)N)NC(=O)[C@H](CCCNC(=N)N)NC(=O)[C@@H]1CCCN1C(=O)[C@@H]1CCCN1C(=O)[C@H](CCCNC(=N)N)NC(=O)[C@@H]1CCCN1C(=O)[C@H](CCCNC(=N)N)NC(=O)[C@@H]1CCCN1C(=O)[C@H](CC(C)C)NC(=O)[C@@H](Cc1ccc(O)cc1)NC(=O)[C@@H]1CCCN1C(=O)[C@@H]1CCCN1C(=O)[C@H](CCCCN)NC(=O)[C@H](CC(=O)O)NC(=O)[C@@H](N)C(C)C)C(=O)N[C@@H](Cc1ccc(O)cc1)C(=O)N[C@@H](CC(N)=O)C(=O)N[C@@H](CCCNC(=N)N)C(N)=O` (H-VDKPP[dY]LPRPRPPRRIYNR-NH2), the MIC in the data set with Acinetobacter baumannii, with Pseudomonas aeruginosa and against Staphylococcus aureus [2] was more than 64 µg/mL each time. The MHC in data set [1] is more than 1000 µg/mL.
Regarding `CC(C)C[C@H](NC(=O)CN(CC(C)C)C(=O)[C@H](CC(C)C)NC(=O)CN(CCCCN)C(=O)[C@H](CC(C)C)NC(=O)CN(CC(C)C)C(=O)[C@H](CCCCN)NC(=O)CN(CC(C)C)C(=O)[C@H](CC(C)C)NC(=O)CN(CCCCN)C(=O)[C@@H](N)CCCCN)C(N)=O` (H-K[Nlys]L[Nleu]K[Nleu]L[Nlys]L[Nleu]L-NH2), the MHC in data set [1] was more than 2000 µg/mL.
For `CC[C@H](C)[C@H](NC(=O)[C@H](CCCNC(=N)N)NC(=O)[C@H](CCCNC(=N)N)NC(=O)[C@@H]1CCCN1C(=O)[C@@H]1CCCN1C(=O)[C@@H](CCCNC(=N)N)NC(=O)[C@@H]1CCCN1C(=O)[C@H](CCCNC(=N)N)NC(=O)[C@@H]1CCCN1C(=O)[C@H](CC(C)C)NC(=O)[C@H](Cc1ccc(O)cc1)NC(=O)[C@@H]1CCCN1C(=O)[C@@H]1CCCN1C(=O)[C@H](CCCCN)NC(=O)[C@H](CC(=O)O)NC(=O)[C@@H](N)C(C)C)C(=O)N[C@@H](Cc1ccc(O)cc1)C(=O)N[C@@H](CC(N)=O)C(=O)N[C@@H](CCCNC(=N)N)C(N)=O` (H-VDKPPYLPRP[dR]PPRRIYNR-NH2), the MIC in the data set on Staphylococcus aureus [3], in the data set on Pseudomonas aeruginosa and with Staphylococcus aureus [2] was more than 64 µg/mL throughout. For the same molecule, the MHC in data set [1] is more than 1000 µg/mL.
`CC[C@H](C)[C@H](NC(=O)[C@H](CCCNC(=N)N)NC(=O)[C@H](CCCNC(=N)N)NC(=O)[C@@H]1CCCN1C(=O)[C@@H]1CCCN1C(=O)[C@H](CCCNC(=N)N)NC(=O)[C@H]1CCCN1C(=O)[C@H](CCCNC(=N)N)NC(=O)[C@@H]1CCCN1C(=O)[C@H](CC(C)C)NC(=O)[C@H](Cc1ccc(O)cc1)NC(=O)[C@@H]1CCCN1C(=O)[C@@H]1CCCN1C(=O)[C@H](CCCCN)NC(=O)[C@H](CC(=O)O)NC(=O)[C@@H](N)C(C)C)C(=O)N[C@@H](Cc1ccc(O)cc1)C(=O)N[C@@H](CC(N)=O)C(=O)N[C@@H](CCCNC(=N)N)C(N)=O` (H-VDKPPYLPR[dP]RPPRRIYNR-NH2): the MIC in the data set with Staphylococcus aureus [3], with Pseudomonas aeruginosa and in the data set with Staphylococcus aureus [2] was more than 64 µg/mL in each case. The MHC in data set [1] is more than 1000 µg/mL.
For the molecule `CC[C@@H](C)[C@@H](NC(=O)[C@@H](CCCNC(=N)N)NC(=O)[C@@H](CCCNC(=N)N)NC(=O)[C@H]1CCCN1C(=O)[C@H]1CCCN1C(=O)[C@@H](CCCNC(=N)N)NC(=O)[C@@H]1CCCN1C(=O)[C@H](CCCNC(=N)N)NC(=O)[C@@H]1CCCN1C(=O)[C@H](CC(C)C)NC(=O)[C@H](Cc1ccc(O)cc1)NC(=O)[C@@H]1CCCN1C(=O)[C@@H]1CCCN1C(=O)[C@H](CCCCN)NC(=O)[C@H](CC(=O)O)NC(=O)[C@@H](N)C(C)C)C(=O)N[C@H](Cc1ccc(O)cc1)C(=O)N[C@H](CC(N)=O)C(=O)N[C@H](CCCNC(=N)N)C(N)=O` (H-VDKPPYLPRP[dR][dP][dP][dR][dR][dI][dY][dN][dR]-NH2), the MIC against Staphylococcus aureus [3] and in the data set with Staphylococcus aureus [2] was more than 64 µg/mL in each case. Further, the result in the data set with rRNA was Active. The MHC in data set [1] is more than 1000 µg/mL.
Turning to `CC[C@H](C)[C@H](NC(=O)[C@H](CCCNC(=N)N)NC(=O)[C@H](CCCNC(=N)N)NC(=O)[C@@H]1CCCN1C(=O)[C@@H]1CCCN1C(=O)[C@H](CCCNC(=N)N)NC(=O)[C@@H]1CCCN1C(=O)[C@@H](CCCNC(=N)N)NC(=O)[C@@H]1CCCN1C(=O)[C@H](CC(C)C)NC(=O)[C@H](Cc1ccc(O)cc1)NC(=O)[C@@H]1CCCN1C(=O)[C@@H]1CCCN1C(=O)[C@H](CCCCN)NC(=O)[C@H](CC(=O)O)NC(=O)[C@@H](N)C(C)C)C(=O)N[C@@H](Cc1ccc(O)cc1)C(=O)N[C@@H](CC(N)=O)C(=O)N[C@@H](CCCNC(=N)N)C(N)=O` (H-VDKPPYLP[dR]PRPPRRIYNR-NH2), the MIC in the data set on Staphylococcus aureus [3], in the data set with Acinetobacter baumannii, in the data set with Pseudomonas aeruginosa and against Staphylococcus aureus [2] was more than 64 µg/mL each time. Besides, the MHC in data set [1] is more than 1000 µg/mL.

A word on the MIC: it is the lowest concentration that inhibits growth of the organism. Low readings indicate inhibition by little substance, high ones a need for much substance.
